# Structures can show the parent of a compound that is named as a salt. Where two headings read alike, the source gives them in different places.
# Experiments:
# mice [1] = details: cited from earlier work
# L1210 cells [2] = details: 48 hours, cited from earlier work; for Put, corresponding tetraamine (in parentheses) / Spd, corresponding tetraamine (in parentheses) / Spm, corresponding tetraamine (in parentheses): % of untreated control; for Analogue, corresponding tetraamine (in parentheses): intracellular amount
# [3] = biological target: polyamine transport apparatus; details: cited from earlier work; for Ki: inhibition of spermidine transport, L1210, read-out: Ki, corresponding tetraamine (in parentheses)
# [4] = test system: ornithine decarboxylase (ODC); details: cited from earlier work; for ODC activity, corresponding tetraamine (in parentheses): L1210, 1 μM at 4 hours
# mice [5] = assay: Acute toxicity in mice (single i.p. dose); format: in vivo
# Procedure: (§1) In the current study, the acute toxicity of six analogues and the chronic toxicity of two triamines were measured (Table 7). The value of all polyamine LD50s are shown in both mg/kg and mmol/kg for comparison. […] The animals were scored two hours after administration of the drug. It is clear that the acute LD50s for triamine analogues are approximately twice the acute LD50s for the corresponding tetraamine analogues.
# (§2) Acute and chronic toxicities were assessed in 10-12 week old CD-1 female mice from Harlan Sprague-Dawley. For acute toxicities, the polyamine analogues were administered in a single i.p. injection to groups of five or six animals at each dose. The animals were scored two hours after administration of the dose. All survivors were further observed for 10 days to assess late onset of toxicity from the single acute dose. In the chronic toxicity regimen, mice were administered polyamine analogue in three i.p. doses per day (t.i.d.) for six days, for a total of eighteen doses per animal. Appetite, weight and overall appearance were monitored daily. […] At least three test groups of 5-6 animals each, representing three different dose levels, were evaluated for each analogue tested. These dose levels were chosen so that at least two groups presented with lethalities, one with a high fraction of lethalities (>0.50, but <1.00).
# [6] = Acute toxicity in mice (single i.p. dose); format: in vivo; details: female, CD-1, mouse, in vivo, ip
# Procedure: as §1, §2
# L1210 cells [7] = details: cited from earlier work
# [8] = test system: spermidine/spermine acetyltransferase (SSAT); details: L1210, 2 μM at 48 hours (tetraamine analogues); cited from earlier work
# [9] = test system: S-adenosylmethionine decarboxylase (AdoMetDC); details: cited from earlier work; for AdoMetDC activity, corresponding tetraamine (in parentheses): L1210, 1 μM at 6 hours
# [10] = test system: polyamine transport apparatus; assay: Competitive uptake determination: inhibition of [3H]spermidine transport into L1210 cells; format: cell-based, murine; details: analogue inhibition of spermidine transport
# How it was run: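 Analogues competed with [3H]spermidine for uptake into L1210 cells. Values are Ki, derived from Lineweaver–Burk analysis as competitive inhibition with respect to spermidine.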
# [11] = test system: ornithine decarboxylase (ODC); assay: ODC activity in treated L1210 cells; format: cell-based, murine; details: L1210, 1 μM at 4 hours
# How it was run: (§3)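 L1210 cells treated with triamines; ODC activity measured at 4 h and AdoMetDC at 6 h as ^14CO2 released from [^14C]-carboxyl-labeled L-ornithine (ODC) or S-adenosyl-L-methionine (AdoMetDC). Untreated cells served as controls and DEHSPM-treated cells as positive controls.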
# [12] = test system: S-adenosylmethionine decarboxylase (AdoMetDC); assay: AdoMetDC activity in treated L1210 cells; format: cell-based, murine; details: L1210, 1 μM at 6 hours
# How it was run: as §3
# L1210 cells [13] = assay: L1210 growth inhibition, IC50 determination; format: cell-based, murine; details: Mus musculus
# Procedure: Murine L1210 leukemia cells (ATCC CCL 219) were maintained in logarithmic growth in RPMI-1640 medium containing 10% fetal calf serum or a semi-synthetic equivalent, NuSerum, 2% HEPES-MOPS buffer and 1 mM aminoguanidine.
# laboratory animals = details: early studies in laboratory animals; cited from earlier work
# L1210 cells [14] = assay: Polyamine pool analysis in L1210 cells; format: cell-based, murine; details: Mus musculus, L1210, 48 h, % of untreated control
# How it was run: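 Cells were exposed to each analogue for 48 h at two concentrations. Washed pellets were extracted with 0.6 N HClO4 (1 ml/10^7 cells), and polyamines were quantified by HPLC of dansyl derivatives.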
# [15] = test system: spermidine/spermine acetyltransferase (SSAT); assay: SSAT activity in treated L1210 cells; format: cell-based, murine; details: L1210, 10 μM at 48 hours (triamine analogues)
# Description: Spermidine/spermine N^1-acetyltransferase activity was based on quantitation of [^14C]-N^1-acetylspermidine formed by acetylation of SPD with [^14C] acetyl coenzyme A according to the method of Libby et al [Biochem. Pharmacol., Vol. 38, supra]. Cells treated with DENSPM were positive controls.
# L1210 cells [16] = assay: Metabolic transformation of polyamine analogues by L1210 cells; format: in vitro ADME, murine; details: 48 hours
# Procedure: The cells were washed twice with cold RPMI-1640, and the pellet was treated with 0.6 N HClO4 (1 ml/10^7 cells). Polyamine contents of the perchloric acid extracts were quantitated by HPLC of the DANSYL derivatives [Bergeron et al, J. Med. Chem., Vol. 37, supra].
# SSAT = details: MALME-3 cells; cited from earlier work
# [17] = mice, single dose i.p., scored two hours after dose, read-out: Acute LD50
# [18] = L1210, 48 hour exposure, read-out: IC50 48 hour, corresponding tetraamine (in parentheses)
# [19] = L1210, 96 hour exposure, read-out: IC50 96 hour, corresponding tetraamine (in parentheses)
# [20] = female, CD-1, mouse, in vivo, 600 mg/kg
compound,measurement,setting,value
"CCNCCCCNCCCCCNCCCCNCC [DE(4,5,4)]",Chronic LD50 (tetraamines),"mice [1]; mice, i.p. t.i.d. × 6 days",0.104 mmol/kg/day
same,Chronic LD50 (tetraamines),"mice [1]; mouse, in vivo, ip",48 mg/kg-day
same,"Put, corresponding tetraamine (in parentheses)",L1210 cells [2]; 0.3 μM,(44) %
same,"Spd, corresponding tetraamine (in parentheses)",L1210 cells [2]; 0.3 μM,(61) %
same,"Spm, corresponding tetraamine (in parentheses)",L1210 cells [2]; 0.3 μM,(70) %
same,"Analogue, corresponding tetraamine (in parentheses)",L1210 cells [2]; 0.3 μM,(0.26) nmol/10^6 cells
same,Ki,[3],6 µM
same,"ODC activity, corresponding tetraamine (in parentheses)",[4],20% of untreated control
same,Acute LD50,"mice [5]; mice, single dose i.p., scored two hours after dose, hydrochloride salts",285 mg/kg
same,LD50 at 2 h,[6]; [17],638 µmol/kg
same,IC50,L1210 cells [7]; [18],0.3 µM
same,IC50,L1210 cells [7]; [19],0.035 µM
same,"SSAT activity, corresponding tetraamine (in parentheses)",[8],120 (120) percent of untreated control
"CCNCCCCCNCCCCNCCCCCNCC.Cl.Cl.Cl.Cl [DE(5,4,5), 3,9,14,20-Tetraazadocosane Tetrahydrochloride]",Chronic LD50 (tetraamines),"mice [1]; mice, i.p. t.i.d. × 6 days, hydrochloride salts",36 mg/kg-day
same,Chronic LD50 (tetraamines),"mice [1]; mice, i.p. t.i.d. × 6 days",0.078 mmol/kg/day
same,"Put, corresponding tetraamine (in parentheses)",L1210 cells [2]; 0.75 μM,(0) %
same,"Spd, corresponding tetraamine (in parentheses)",L1210 cells [2]; 0.75 μM,(10) %
same,"Spm, corresponding tetraamine (in parentheses)",L1210 cells [2]; 0.75 μM,(58) %
same,"Analogue, corresponding tetraamine (in parentheses)",L1210 cells [2]; 0.75 μM,(1.48) nmol/10^6 cells
same,Ki,[3],16 µM
same,"ODC activity, corresponding tetraamine (in parentheses)",[4],19% of untreated control
same,"AdoMetDC activity, corresponding tetraamine (in parentheses)",[9],54% of untreated control
same,LD50 at 2 h,"[6]; mice, single dose i.p., scored two hours after dose, hydrochloride salts, read-out: Acute LD50",195 mg/kg
same,LD50 at 2 h,[6]; [17],424 µmol/kg
same,IC50,L1210 cells [7]; [18],0.4 µM
same,IC50,L1210 cells [7]; [19],0.03 µM
same,"SSAT activity, corresponding tetraamine (in parentheses)",[8],190% of untreated control
"NCCCCNCCCN [SPD, spermidine]",Ki,[10],2.2 µM
same,"ODC activity, percent of untreated control",[11],16% of untreated control
same,"AdoMetDC activity, percent of untreated control",[12],43% of untreated control
same,IC50,"L1210 cells [13]; L1210, 48 h, L1210, 48 hour exposure, read-out: IC50 48 hour",> 100 µM
same,IC50,"L1210 cells [13]; L1210, 96 h, L1210, 96 hour exposure, read-out: IC50 96 hour",> 100 µM
same,Nephrotoxicity relative to spermine,laboratory animals,approximately one-twentieth as nephrotoxic as spermine
same,activity at 100 µM,L1210 cells [14]; read-out: Put,0%
same,activity at 100 µM,L1210 cells [14]; read-out: Spd,117%
same,activity at 100 µM,L1210 cells [14]; read-out: Spm,118%
same,activity at 500 µM,L1210 cells [14]; read-out: Put,0%
same,activity at 500 µM,L1210 cells [14]; read-out: Spd,145%
same,activity at 500 µM,L1210 cells [14]; read-out: Spm,108%
same,"SSAT activity, percent of untreated control",[15],160% of untreated control
"CCNCCCNCCCNCCCNCC [DENSPM, N^1,N^11-diethylnorspermine]","Put, corresponding tetraamine (in parentheses)",L1210 cells [2]; 10 μM,(30) %
same,"Spd, corresponding tetraamine (in parentheses)",L1210 cells [2]; 10 μM,(14) %
same,"Spm, corresponding tetraamine (in parentheses)",L1210 cells [2]; 10 μM,(31) %
same,"Analogue, corresponding tetraamine (in parentheses)",L1210 cells [2]; 10 μM,(1.59) nmol/10^6 cells
same,"Analogue, corresponding tetraamine (in parentheses)",L1210 cells [2]; 100 μM,(2.44) nmol/10^6 cells
same,Ki,[3],17 µM
same,Ki relative to those of DESPM and DEHSPM,[3]; polyamine transport system,over 10 times
same,Parent drug as % of total drug in the cell,L1210 cells [16]; 500 μM analogue,95.3%
same,Parent drug in L1210 cells,L1210 cells [16]; 500 μM analogue,2440 pmols/10^6
same,"AdoMetDC activity, corresponding tetraamine (in parentheses)",[9],42% of untreated control
same,IC50,L1210 cells [7]; [18],> 100 µM
same,IC50,L1210 cells [7]; [19],2 µM
same,SSAT up-regulation,SSAT,1200 fold
same,"SSAT activity, corresponding tetraamine (in parentheses)",[8],1500% of untreated control
"CCNCCCNCCCCNCCCNCC [DESPM, N^1,N^12-diethylspermine]",Ki,[3],1.6 µM
same,Time at which reduction in ODC activity plateaued,[4]; previous studies,4 h
same,"AdoMetDC activity, corresponding tetraamine (in parentheses)",[9],28% of untreated control
same,Time at which reduction in AdoMetDC activity plateaued,[9]; previous studies,6 h
same,Animals died within seven days,mice [5]; [20],5/5
same,Death within the initial 2 hours,mice [5]; [20],no death
same,LD50 at 2 h,[6],842 µmol/kg
same,IC50,L1210 cells [7]; [18],30 µM
same,IC50,L1210 cells [7]; [19],0.18 µM
same,SSAT up-regulation,SSAT,250 fold
same,"SSAT activity, corresponding tetraamine (in parentheses)",[8],460% of untreated control
"CCNCCCCNCCCCNCCCCNCC [DEHSPM, N^1,N^14-diethylhomospermine]","Put, corresponding tetraamine (in parentheses)",L1210 cells [2]; 10 μM,(0) %
same,"Spd, corresponding tetraamine (in parentheses)",L1210 cells [2]; 10 μM,(0) %
same,"Spm, corresponding tetraamine (in parentheses)",L1210 cells [2]; 10 μM,(61) %
same,"Analogue, corresponding tetraamine (in parentheses)",L1210 cells [2]; 10 μM,(2.94) nmol/10^6 cells
same,Ki,[3],1.4 µM
same,N-Monodealkylation (result in words),L1210 cells [16]; 100 μM analogue,no N-deethylation
same,Parent drug as % of total drug in the cell,L1210 cells [16]; 100 μM analogue,100%
same,Parent drug in L1210 cells,L1210 cells [16]; 100 μM analogue,4215 pmols/10^6
same,"ODC activity, corresponding tetraamine (in parentheses)",[4],7% of untreated control
same,IC50,L1210 cells [7]; [18],0.2 µM
same,IC50,L1210 cells [7]; [19],0.07 µM
same,SSAT up-regulation,SSAT,30 fold
same,"SSAT activity, corresponding tetraamine (in parentheses)",[8],110% of untreated control
"CCCNCCCNCCCNCCCNCCC [DPNSPM, N^1,N^11-Dipropylnorspermine Tetrahydrochloride]","Put, corresponding tetraamine (in parentheses)",L1210 cells [2]; 100 μM,(61) %
same,"Spd, corresponding tetraamine (in parentheses)",L1210 cells [2]; 100 μM,(35) %
same,"Spm, corresponding tetraamine (in parentheses)",L1210 cells [2]; 100 μM,(77) %
same,"Put, corresponding tetraamine (in parentheses)",L1210 cells [2]; 500 μM,(0) %
same,"Spd, corresponding tetraamine (in parentheses)",L1210 cells [2]; 500 μM,(19) %
same,"Spm, corresponding tetraamine (in parentheses)",L1210 cells [2]; 500 μM,(56) %
same,"Analogue, corresponding tetraamine (in parentheses)",L1210 cells [2]; 100 μM,(0.89) nmol/10^6 cells
same,"Analogue, corresponding tetraamine (in parentheses)",L1210 cells [2]; 500 μM,(1.28) nmol/10^6 cells
same,Ki,[3],11 µM
same,Parent drug as % of total drug in the cell,L1210 cells [16]; 100 μM analogue,78.2%
same,Parent drug in L1210 cells,L1210 cells [16]; 100 μM analogue,893 pmols/10^6
same,"ODC activity, corresponding tetraamine (in parentheses)",[4],79% of untreated control
same,"AdoMetDC activity, corresponding tetraamine (in parentheses)",[9],70% of untreated control
same,IC50,L1210 cells [7]; [18],> 100 µM
same,IC50,L1210 cells [7]; [19],18 µM
same,"SSAT activity, corresponding tetraamine (in parentheses)",[8],460% of untreated control

# Reference: US20020045780A1, “Biologically active spermidine analogues, pharmaceutical compositions and methods of treatment” (priority 1997, published 2002)
